For this test, the system named is Fcγ receptor signaling. Nature of the test: Reverse Passive Arthus model. The class given is in vivo. The note with it: Rattus norvegicus, single dose 10 mg/kg. As to the method: Acute in vivo measurement of Fcγ receptor signaling inhibition of the compounds is measured using the:
Reverse Passive Arthus Model
On day 0 OVA was made up at a concentration of 17 mg/mL, in PBS by rocking gently until a solution was formed. 2% Evans Blue solution (Sigma Aldrich, cat# E2129) was then added to double the volume for a final concentration of 8.5 mg/mL of OVA and 1% Evans Blue dye. Anti-OVA antibody (Abazyme), stock concentration 10 mg/mL, was thawed and a 4 mg/mL solution was made with PBS. Compounds were made up in 0.5% HPMC with 0.02% Tween 80, and vortexed for about 15 seconds followed by homogenization for a minimum of about 2 min at 28,000 RPM until there was a fine particulate suspension with no clumps of compound. Rats were weighed and dosed with compound at a pre-determined time based on compound Tmax determined in pharmacokinetic studies. Animals were then placed under general anesthesia with a 5% isoflourane and oxygen mixture and shaved. Using a 0.5 cc insulin syringe two sites were injected i.d., 1 site with 100 μL of 4.0 mg/mL of anti-OVA antibody, and 1 site with 100 μL of sterile PBS. Each injection site was circled with a permanent marker to mark the site. Immediately following i.d. injections, animals were injected with 200 μL of the OVA (10 mg/kg)/1% Evans Blue mixture, i.v., using a 0.5 cc insulin syringe. About 4 h post injection animals were euthanized, bled via cardiac puncture and blood was put into plasma separation tubes. Blood samples were stored on ice until centrifugation (within about 2 h of collection). Each injection site was removed with a disposable biopsy punch (Acuderm Acu-Punch Disposable 12 mm), cut into four pieces and placed in a pre-labeled 2 mL eppendorf tube. One mL of DMF (99%) was added to each biopsy tube and they were placed in a heat block at about 50° C. for about 24 h. After incubation, 100 μL of each sample was transferred to a 96 well flat bottom plate and read at 620 nm on a plate reader using the Softmax software. Background was removed by subtracting the OD from the PBS injected site from the OD of the anti-OVA injected site for each individual animal. Plasma samples were spun down in a microcentrifuge (Eppendorf 5415R) for about 5 min at 16.1 rcf. 200 μL of plasma was placed in a 1.7 mL eppendorf tube for drug level measurements and tubes were stored at about −80° C. until evaluation.

As to `CC1(C)C(=O)Nc2cc(Nc3nc(NCC(F)F)c4occc4n3)ccc21` [Example #16, 6-(4-(2,2-Difluoroethylamino)furo[3,2-d]pyrimidin-2-ylamino)-3,3-dimethylindolin-2-one], the inhibition in vivo – broadly, the drop in the measured response relative to a control, in per cent – at 10 mg/kg turned out to be 63%. Turning to `Cc1cc(Nc2nc(NC3CC3)c3occc3n2)cc2[nH]ncc12` [Example #AC.1, N^4-cyclopropyl-N^2-(4-methyl-1H-indazol-6-yl)furo[3,2-d]pyrimidine-2,4-diamine], the inhibition in vivo at 10 mg/kg stood at 43%. As for `Cc1n[nH]c2cc(Nc3nc(N4CCC(O)(CN)CC4)c4occc4n3)ccc12` [Example #AM.1, 4-(Aminomethyl)-1-(2-(3-methyl-1H-indazol-6-ylamino)furo[3,2-d]pyrimidin-yl)piperidin-4-ol], the inhibition in vivo at 10 mg/kg was found to be 3%. For `CC1(C)Oc2ccc(Nc3nc(N4CCC(O)(CN)CC4)c4occc4n3)cc2NC1=O` [Example #AM.1.1] the value was 12%; for `CC1(C)Oc2ccc(Nc3nc(N4CC[C@@H](CN)[C@H](O)C4)c4occc4n3)cc2NC1=O` [Example #AM.1.2], -16%. Regarding `CC1(C)C(=O)Nc2cc(Nc3nc(N4CCC(O)(CN)CC4)c4occc4n3)ccc21` [Example #AM.1.3], the inhibition in vivo at 10 mg/kg worked out at 15%. For `CN(C)C(=O)c1n[nH]c2cc(Nc3nc(NC4CC4)c4occc4n3)ccc12` [J.1, 6-(4-(Cyclopropylamino)furo[3,2-d]pyrimidin-2-ylamino)-N,N-dimethyl-1H-indazole-3-carboxamide] the value was -2%; for `c1cc(-c2n[nH]c3cc(Nc4nc(NC5CC5)c5occc5n4)ccc23)ccn1` [J.1.7], 12%. The figure for `N#Cc1n[nH]c2cc(Nc3nc(NC4CC4)c4occc4n3)ccc12` [J.1.8] is 9%. As for `Cc1n[nH]c2cc(Nc3nc(N4CCC5(CC4)CNCCO5)c4occc4n3)ccc12` [Q.1.4], the inhibition in vivo at 10 mg/kg is 33%.
